Measured values: ChEMBL document CHEMBL1140730, “Validation of diacyl glycerolacyltransferase I as a novel target for the treatment of obesity and dyslipidemia using a potent and selective small molecule inhibitor” (J Med Chem, 2008)

What was measured:
[1] = target: T1, Diacylglycerol O-acyltransferase 1 (Homo sapiens, UniProt O75907); test: Inhibition of human recombinant DGAT1 expressed in Sf9 cells
T1 sequence (O75907 whole entry): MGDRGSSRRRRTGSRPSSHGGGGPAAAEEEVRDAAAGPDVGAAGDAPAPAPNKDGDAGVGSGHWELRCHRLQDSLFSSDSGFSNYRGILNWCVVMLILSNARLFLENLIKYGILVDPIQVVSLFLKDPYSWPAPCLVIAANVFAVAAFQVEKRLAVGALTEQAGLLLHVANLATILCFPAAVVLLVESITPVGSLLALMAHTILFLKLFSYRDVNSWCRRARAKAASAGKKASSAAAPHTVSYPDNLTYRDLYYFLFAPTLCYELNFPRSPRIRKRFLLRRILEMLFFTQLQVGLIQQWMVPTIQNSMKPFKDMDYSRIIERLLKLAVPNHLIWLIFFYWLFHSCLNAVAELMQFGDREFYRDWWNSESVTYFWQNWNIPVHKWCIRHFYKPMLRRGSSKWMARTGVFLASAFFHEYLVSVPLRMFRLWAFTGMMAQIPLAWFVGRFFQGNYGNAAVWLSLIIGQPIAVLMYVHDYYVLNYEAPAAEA

[2] = target: T2, Diacylglycerol O-acyltransferase 1 (Mus musculus, UniProt Q9Z2A7); test: Inhibition of mouse recombinant DGAT1 expressed in Sf9 cells
T2 sequence (Q9Z2A7 whole entry): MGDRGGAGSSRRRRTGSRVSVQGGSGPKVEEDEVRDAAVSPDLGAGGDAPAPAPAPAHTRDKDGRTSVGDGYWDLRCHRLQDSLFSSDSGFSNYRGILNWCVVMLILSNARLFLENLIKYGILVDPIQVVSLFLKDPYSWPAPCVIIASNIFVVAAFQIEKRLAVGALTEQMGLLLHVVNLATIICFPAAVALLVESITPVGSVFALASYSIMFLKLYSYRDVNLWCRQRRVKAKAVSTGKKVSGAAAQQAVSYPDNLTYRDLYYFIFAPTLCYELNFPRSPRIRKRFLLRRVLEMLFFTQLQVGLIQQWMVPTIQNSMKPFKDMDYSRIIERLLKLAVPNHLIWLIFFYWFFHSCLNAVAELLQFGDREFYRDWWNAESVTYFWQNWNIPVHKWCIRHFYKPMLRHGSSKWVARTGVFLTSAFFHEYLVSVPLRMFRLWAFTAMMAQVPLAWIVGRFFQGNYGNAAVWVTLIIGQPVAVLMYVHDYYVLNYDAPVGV

| SMILES | IC50 [1] | IC50 [2] |
| --- | --- | --- |
| O=C(Nc1ccccc1)Nc1ccc(-c2ccc(C(=O)[C@H]3CCC[C@@H]3C(=O)O)cc2)cc1 | 96 nM | – |
| O=C(Nc1ccc(-c2ccc(C(=O)[C@@H]3CCC[C@H]3C(=O)O)cc2)cc1)Nc1ccccc1C(F)(F)F | – | 16 nM |
| O=C(Nc1ccc(-c2ccc(C(=O)[C@@H]3CCC[C@H]3C(=O)O)cc2)cc1)Nc1cccc(F)c1 | – | 39 nM |
| O=C(Nc1ccc(-c2ccc(C(=O)[C@@H]3CCC[C@H]3C(=O)O)cc2)cc1)Nc1ccc2c(c1)OCO2 | – | 63 nM |
| O=C(O)[C@@H]1CCC[C@H]1C(=O)c1ccc(-c2ccc(Nc3nc4ccc(OC(F)(F)F)cc4s3)c(F)c2)cc1 | – | 207 nM |
| O=C(Nc1ccc(-c2ccc(C(=O)[C@@H]3CCC[C@H]3C(=O)O)cc2)cc1)Nc1cc(C(F)(F)F)ccc1F | – | 21 nM |
